Data on two compounds can be found in patent publication US20160341734A1, “USE OF FLUOROQUINOLONE ANTIBIOTICS” (POSTECH ACADEMY-INDUSTRY FOUNDATION, priority 2015, published 2016).

Counter-ions that a name gives are not always drawn.

Series [1] has as its system corneal cells of the mouse. The series is described as follows: multi-photon fluorescence of corneal cells after dropping the antibiotic in the eye. The format is in vivo. How it is done:
Blab/c female mice after five or six weeks, gatifloxacin, hydrochloride moxifloxacin, and a multi-photon microscope including a biaxial scanner (a galvano scanner of x axis and a galvano scanner of y axis) to be used by a point scanning method were prepared.
In this Experimental Example, a two-photon microscope using a femtosecond laser as a light source was used and the multi-photon fluorescence was equally measured under the following condition throughout an experimental process.
Excitation wavelength: 780 nm for vigamox (moxifloxacin)
In order to compare fluorescence expression of hydrochloride moxifloxacin with auto-fluorescence expression of the corneal cells of the mouse, the corneal cells of the mouse which are not applied with hydrochloride moxifloxacin were first photographed.
The Blab/c mouse to be used in the experiment was anesthetized and then fixed to an eye holder for photographing the eye, and photographed by the two-photon microscope. Laser power was set as 30.8 mW, and in this case, the intensity of auto-fluorescence of the photographed mouse cornea was recorded.
In order to measure the fluorescence expression degree of the mouse cornea by vigamox (hydrochloride moxifloxacin), hydrochloride moxifloxacin of 10 μl was dropped in a left eye of the mouse and an eyelid was closed for 30 seconds. […]

Series [2] in a line: two-photon excitation and emission spectrum of the antibiotics (femtosecond laser). The class given is physicochemical. The source says:
3A illustrates an excitation spectrum of hydrochloride moxifloxacin and gatifloxacin. Here, an X axis represents a wavelength (nm) of a femtosecond laser light source used in the experiment, and a degree (a.u.) of two-photon excited fluorescence (TPF) at 700 nm to 800 nm which is a measuring range of a femtosecond laser wavelength is illustrated as a Y axis. Through the graph, it can be seen that hydrochloride moxifloxacin and gatifloxacin may represent fluorescent signals in the light source having a range of 700 nm to 800 nm which is a near-infrared wavelength. Further, in the case where the wavelength of the light source is 700 nm as shown in the intensity of the excited fluorescence graph of the Y axis, it can be seen that a fluorescent signal stronger than other wavelengths is shown. FIG. 3B illustrates an emission spectrum representing a fluorescence expression degree of each antibiotic when the femtosecond laser is applied to hydrochloride moxifloxacin and gatifloxacin. The X axis represents a wavelength (nm) and the Y axis represents the degree (a.u.) of the TPF. In the graph, in the hydrochloride moxifloxacin and the gatifloxacin, it can be seen that the fluorescent signals having wavelengths of 450 nm to 550 nm are frequently expressed and the wavelength of about 520 nm is expressed most strongly.

For series [3] the following is noted: single-photon fluorescence, ultraviolet-ray area; cited from earlier work.
A further series deals with staphylococcus. The series is described as follows: multi-photon fluorescence in bacteria. The class given is cell-based. How it is done:
(§1) Bacteria (pseudomonas and staphylococcus) used in the experiment, hydrochloride moxifloxacin, and a biaxial scanner (a galvano scanner of x axis and a galvano scanner of y axis) to be used by a point scanning method were prepared.
(§2) In this Experimental Example, a two-photon microscope using a femtosecond laser as a light source was used, and the multi-photon fluorescence was equally measured under the following condition throughout an experimental process.
(§3) Excitation wavelength: 780 nm for vigamox(moxifloxacin)
(§4) The bacteria were incubated under the following condition.
staphylococcus-lysogeny broth (LB medium)
(§5) 1. A bacteria stock was put in a medium of 3 mL and cultured after overnight incubation (37° C. and 200 rpm).
(§6) 2. Here, 0.03 mL of the cultured bacteria stock was taken and put in a fresh medium of 3 mL, and then cultured (37° C. and 200 rpm) up to OD600=1.5.
3. […]
(§7) In order to compare fluorescence expression of hydrochloride moxifloxacin with auto-fluorescence expression of bacteria, fluorescence expression of bacteria (pseudomonas and staphylococcus) which are not applied with hydrochloride moxifloxacin was first photographed and intensity of the auto-fluorescence expression was recorded. Subsequently, the hydrochloride moxifloxacin was administered to the medium and then the intensity of the fluorescence expression after the incubation time was measured.

For a further series, the system named is pseudomonas. The series is described as follows: multi-photon fluorescence in bacteria. The class given is cell-based. As to the method:
as §1, §2, §3, §4
pseudomonas-nutrient broth (nutrient medium)
as §5, §6
3. […]
as §7

As for `COc1c(N2CCNC(C)C2)c(F)cc2c(=O)c(C(=O)O)cn(C3CC3)c12` (stereo not drawn) [gatifloxacin], the “fluorescence intensity in corneal endothelium layer versus auto-fluorescence” value in series [1] (corneal endothelium layer, FIGS. 5E, 6E vs 4E) is listed as “higher than the fluorescence intensity of the auto-fluorescence expression”. The “intensity of fluorescence expression in cornea versus auto-fluorescence” value in series [1] (laser power 30.8 mW, same as auto-fluorescence) is recorded as “much larger than that of the auto-fluorescence expression”. Further, the “emission wavelength expressed most strongly” value in series [2] (two-photon emission spectrum) was “about 520 nm”. In series [2] (two-photon excitation spectrum, 700 nm to 800 nm measured), the “light source wavelength with fluorescent signal stronger than other wavelengths” value came to 700 nm. Further, the “excited light expressing the fluoroquinolone antibiotics (wavelength)” value in series [3] is 292 nm.

As for `COc1c(N2C[C@@H]3CCCN[C@@H]3C2)c(F)cc2c(=O)c(C(=O)O)cn(C3CC3)c12` [hydrochloride moxifloxacin, moxifloxacin], the entries for the “difference in signal intensity after versus before administering” value in the series with staphylococcus and in the series with pseudomonas were 10 times and “about 10 times”, respectively. Further, the “fluorescence signal intensity after administering” value in the series on staphylococcus (FIG. 18, before administering 10.4277 a.u.) stood at 110.3189 a.u; in the series on pseudomonas (FIG. 18, before administering 9.5334 a.u.), 101.2196 a.u.
